Measurements published in patent US11518758B2, “Heteroarylaminopyrimidine amide autophagy inhibitors and methods of use thereof” (Deciphera Pharmaceuticals, LLC, priority 2019, dated 2022).

Molecular target: T1, ULK1 kinase (Homo sapiens, UniProt O75385)
T1 construct: purchased Eurofins 14-959
T1 sequence (O75385 with tags, fused parts or gaps): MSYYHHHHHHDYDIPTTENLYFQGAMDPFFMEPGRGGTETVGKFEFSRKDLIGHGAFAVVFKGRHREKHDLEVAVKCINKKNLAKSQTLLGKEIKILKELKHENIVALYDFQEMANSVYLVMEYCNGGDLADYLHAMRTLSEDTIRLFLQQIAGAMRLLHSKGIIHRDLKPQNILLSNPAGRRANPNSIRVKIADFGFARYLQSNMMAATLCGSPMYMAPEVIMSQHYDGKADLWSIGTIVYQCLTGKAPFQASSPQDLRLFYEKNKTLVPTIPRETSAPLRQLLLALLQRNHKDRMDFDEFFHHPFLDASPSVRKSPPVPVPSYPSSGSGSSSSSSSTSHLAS
Test: Biochemical assay for ULK1.2 (coupled pyruvate kinase/lactate dehydrogenase assay)
Details: 19 nM ULK1 (Eurofins), myelin basic protein, 1 mM ATP
Procedure: Example 174. Biochemical Assay for ULK1.2
Activity of ULK1 kinase was determined spectroscopically using a coupled pyruvate kinase/lactate dehydrogenase assay that continuously monitors the ATP hydrolysis-dependent oxidation of NADH (e.g., Schindler et al. Science (2000) 289: 1938-1942). Assays were conducted in 384-well plates (100 uL final volume) using 19 nM ULK1 (Eurofins CAT #14-959), 0.25 mg/mL myelin basic protein, 1.5 units pyruvate kinase, 2.1 units lactate dehydrogenase, 1 mM phosphoenol pyruvate, 0.28 mM NADH and 1 mM ATP in assay buffer (100 mM Tris, pH 7.5, 15 mM MgCl2, 0.5 mM DTT, 0.1% octyl-glucoside, 0.002% (w/v) BSA, and 0.002% Triton X-100). Inhibition of ULK1 was measured by adding serial diluted test compound (final assay concentration of 1% DMSO). A decrease in absorption at 340 nm was monitored continuously for 6 hours at 30° C. on a multi-mode microplate reader (BioTek). The reaction rate was calculated using the 2-3 h time frame. The reaction rate at each concentration of compound was converted to percent inhibition using controls (i.e. reaction with no test compound and reaction with a known inhibitor) and IC50 values were calculated by fitting a four-parameter sigmoidal curve to the data using Prism (GraphPad software).

| IC50 | SMILES |
| --- | --- |
| 1 to 25 nM | Cc1nn(C2CCN(CC(C)C)CC2)cc1Nc1ncc(C(F)(F)F)c(NCCCN2CCCCCC2=O)n1 [Example 89] |
| 25 to 100 nM | CCc1nn(C2CCN(C(C)C)CC2)cc1Nc1ncc(C(F)(F)F)c(NCCCN2CCCCC2=O)n1 [Example 43] |
| 1 to 25 nM | Cc1nn(C2CCN(CC3CC3)CC2)cc1Nc1ncc(C(F)(F)F)c(NCCCN2CCCCC2=O)n1 [Example 19] |
| 25 to 100 nM | CCc1nn(C2CCN(CC)CC2)cc1Nc1ncc(C(F)(F)F)c(NCCCN2CCCCC2=O)n1 [Example 42] |
| 1 to 25 nM | CN1CCC(n2cc(Nc3ncc(C(F)(F)F)c(NCCCN4CCN(C)C4=O)n3)cn2)CC1 [Example 151] |
| > 500 nM | Cc1nn(CCN2CCOCC2)cc1Nc1ncc(Br)c(NCCCN2CCCCC2=O)n1 [Example 63] |
| > 500 nM | Cc1nn([C@@H]2CCNC2)cc1Nc1ncc(Cl)c(NCCCN2CCCC2=O)n1 [Example 158] |
| 1 to 25 nM | CC(C)CN1CC(n2cc(Nc3ncc(C(F)(F)F)c(NCCCN4CCCCCC4=O)n3)cn2)C1 [Example 97] |
| 1 to 25 nM | Cc1nn(C2CCN(C3CCCC3)CC2)cc1Nc1ncc(C(F)(F)F)c(NCCCN2CCCCCC2=O)n1 [Example 93] |
| 25 to 100 nM | CCN1CCC(n2cc(Nc3ncc(Br)c(NCCCN4CCCCC4=O)n3)c(C)n2)CC1 [Example 50] |
| > 500 nM | Cc1nn([C@@H]2CCN(C)C2)cc1Nc1ncc(Cl)c(NCCCN2CCCC2=O)n1 [Example 160] |
| 100 to 500 nM | CCc1nn(C2CCN(CC)CC2)cc1Nc1ncc(Cl)c(NCCCN2CCCCC2=O)n1 [Example 46] |
| 1 to 25 nM | [2H]C([2H])([2H])N1CCC(n2cc(Nc3ncc(Br)c(NCCCN4CCCCC4=O)n3)c(C)n2)CC1 [Example 49] |
| 100 to 500 nM | CN1CCN(CCCNc2nc(Nc3cnn(C4CCN(C5CC5)CC4)c3)ncc2Cl)C1=O [Example 148] |
| 1 to 25 nM | [2H]C([2H])([2H])N1CCC(n2cc(Nc3ncc(C(F)(F)F)c(NCCCN4CCCCCC4=O)n3)c(C)n2)CC1 [Example 101] |
| 25 to 100 nM | Cc1nn([C@@H]2CCN(C(C)C)C2)cc1Nc1ncc(C(F)(F)F)c(NCCCN2CCCCC2=O)n1 [Example 36] |
| 1 to 25 nM | CCc1nn(C2CCN(C)CC2)cc1Nc1ncc(C(F)(F)F)c(NCCCN2CCCCC2=O)n1 [Example 47] |
| 1 to 25 nM | [2H]C([2H])([2H])N1CCC(n2cc(Nc3ncc(C(F)(F)F)c(NCCCN4CCCCC4=O)n3)c(CC)n2)CC1 [Example 52] |
| 1 to 25 nM | Cc1nn(C2CCN(C(C)C)CC2)cc1Nc1ncc(C(F)(F)F)c(NCCCN2CCCCCC2=O)n1 [Example 85] |
| 1 to 25 nM | Cc1nn([C@H]2CCNC2)cc1Nc1ncc(C(F)(F)F)c(NCCCN2CCCCC2=O)n1 [Example 65] |
| 100 to 500 nM | CC(C)CN1CC(n2cc(Nc3ncc(Cl)c(NCCCN4CCCCC4=O)n3)cn2)C1 [Example 11] |
| 100 to 500 nM | CC1CCN(CCCNc2nc(Nc3cnn(C4CCN(C5CC5)CC4)c3)ncc2Cl)C1=O (stereo not shown) [Example 155] |
| 25 to 100 nM | Cc1nn(CCCN2CCCCC2)cc1Nc1ncc(C(F)(F)F)c(NCCCN2CCCCC2=O)n1 [Example 28] |
| 25 to 100 nM | Cc1nn(CCCN(C)C)cc1Nc1ncc(C(F)(F)F)c(NCCCN2CCCCC2=O)n1 [Example 35] |
| 100 to 500 nM | Cc1nn(CCCN2CCOCC2)cc1Nc1ncc(C(F)(F)F)c(NCCCN2CCCCC2=O)n1 [Example 30] |
| 25 to 100 nM | Cc1nn(C2CCN(CCF)CC2)cc1Nc1ncc(C(F)(F)F)c(NCCCN2CCCCC2=O)n1 [Example 59] |
| > 500 nM | Cc1nn(CCN2CCOCC2)cc1Nc1ncc(Cl)c(NCCCN2CCCC2=O)n1 [Example 163] |

More lines, now with the values behind:

| SMILES | IC50 |
| --- | --- |
| Cc1nn(CCN2CCCCC2)cc1Nc1ncc(C(F)(F)F)c(NCCCN2CCCCC2=O)n1 [Example 22] | 100 to 500 nM |
| CCN1CCC(n2cc(Nc3ncc(C(F)(F)F)c(NCCCN4CCCC4=O)n3)c(C)n2)CC1 [Example 82] | 100 to 500 nM |
| Cc1nn(C2CN(CC(C)C)C2)cc1Nc1ncc(Cl)c(NCCCN2CCCC2=O)n1 [Example 161] | > 500 nM |
| [2H]C([2H])([2H])N1CCC(n2cc(Nc3ncc(Cl)c(NCCCN4CCCCC4=O)n3)c(C)n2)CC1 [Example 57] | 100 to 500 nM |
| CC(C)CN1CC(n2cc(Nc3ncc(Br)c(NCCCN4CCCCC4=O)n3)cn2)C1 [Example 17] | 25 to 100 nM |
| Cc1nn([C@@H]2CCN(C)C2)cc1Nc1ncc(Cl)c(NCCCN2CCOCCC2=O)n1 [Example 134] | 100 to 500 nM |
| CCc1nn(C2CCN(C(C)C)CC2)cc1Nc1ncc(C(F)(F)F)c(NCCCN2CCCOC2=O)n1 [Example 70] | 25 to 100 nM |
| CC(C)N1CCC(n2cc(Nc3ncc(Cl)c(NCCCN4CCCCC4=O)n3)cn2)CC1 [Example 5] | 25 to 100 nM |
| Cc1nn(CCCN2CCOCC2)cc1Nc1ncc(C(F)(F)F)c(NCCCN2CCCOCC2=O)n1 [Example 112] | 100 to 500 nM |
| Cc1nn([C@@H]2CCN(C)C2)cc1Nc1ncc(Cl)c(NCCCN2CCCCC2=O)n1 [Example 24] | 100 to 500 nM |
| Cc1nn(C2CN(CC(C)C)C2)cc1Nc1ncc(C(F)(F)F)c(NCCCN2CCCC2=O)n1 [Example 128] | 1 to 25 nM |
| Cc1nn(C2CN(CC(C)C)C2)cc1Nc1ncc(Br)c(NCCCN2CCCC2=O)n1 [Example 154] | > 500 nM |
| Cc1nn([C@@H]2CCNC2)cc1Nc1ncc(C(F)(F)F)c(NCCCN2CCCC2=O)n1 [Example 169] | 100 to 500 nM |
| Cc1nn([C@H]2CCNC2)cc1Nc1ncc(C(F)(F)F)c(NCCCN2CCCC2=O)n1 [Example 167] | 100 to 500 nM |
| Cc1nn(C2CCN(C3CCC3)CC2)cc1Nc1ncc(C(F)(F)F)c(NCCCN2CCCCCC2=O)n1 [Example 92] | 1 to 25 nM |
| Cc1nn(CCN2CCCC2)cc1Nc1ncc(Cl)c(NCCCN2CCCC2=O)n1 [Example 162] | > 500 nM |
| CN1CCC(n2cc(Nc3ncc(C(F)(F)F)c(NCCCN4CCCCC4=O)n3)cn2)CC1 [Example 10] | 1 to 25 nM |
| Cc1nn(C2CCN(C(C)C)CC2)cc1Nc1ncc(Cl)c(NCCCN2CCCCCC2=O)n1 [Example 87] | 25 to 100 nM |
| Cc1nn([C@@H]2CCN(C(C)C)C2)cc1Nc1ncc(C(F)(F)F)c(NCCCN2CCCCCC2=O)n1 [Example 95] | 1 to 25 nM |
| CCc1nn(C2CCN(C)CC2)cc1Nc1ncc(Cl)c(NCCCN2CCCCC2=O)n1 [Example 55] | 100 to 500 nM |
| Cc1nn([C@@H]2CCNC2)cc1Nc1ncc(C(F)(F)F)c(NCCCN2CCCCC2=O)n1 [Example 34] | 1 to 25 nM |
| CC(C)N1CCC(n2cc(Nc3ncc(C(F)(F)F)c(NCCCN4CCCCCC4=O)n3)cn2)CC1 [Example 88] | 1 to 25 nM |
| CCN1CCC(n2cc(Nc3ncc(C(F)(F)F)c(NCCCN4CCCCC4=O)n3)c(C)n2)CC1 [Example 37] | 1 to 25 nM |
| CC1(C)CCC(=O)N1CCCNc1nc(Nc2cnn(C3CCN(C4CC4)CC3)c2)ncc1Cl [Example 149] | 100 to 500 nM |

Tested on: phospho-Serine 318 ATG13 (pATG13), ULK kinase substrate, in A549 (KRAS mutant) cells
Test: pATG13 levels of mutant KRas A549 cells after treatment with ULK inhibitors in combination with trametinib (ELISA)
Type: cell-based, human
Details: with 250 nM trametinib
Procedure: Example 177. Cellular Inhibition of ULK Kinase Substrate ATG13 Protein pATG13 Levels of Mutant KRas A549 Cells after Treatment with ULK Inhibitors in Combination with Trametinib
A549 (KRAS mutant) human lung cancer cells (6,000 cells/well) were added to a 384-well tissue-culture treated plate in 50 μL of pre-warmed DMEM medium supplemented with 10% characterized fetal bovine serum (Invitrogen, Carlsbad, Calif.), 100 units/mL penicillin G, and 100 μg/mL streptomycin and allowed to grow overnight at 37° C., 5% CO2, and 95% humidity. The following day, 10 μL of media containing trametinib or DMSO as a control was added to wells. The final concentration of trametinib in wells was 250 nM. A dose response of a test compound (0.6 μL per well) was added. DMSO (0.6 μL) was added to control wells. The plate was briefly shaken to mix wells and then incubated at 37° C. overnight. The next day, the media was aspirated and cells were washed with Dulbecco's Phosphate Buffered Saline (Gibco). Cells were lysed using MPER lysis buffer (Pierce, Rockford, Ill.) containing Halt Phosphatase and Protease Inhibitors (Pierce, Rockford, Ill.) and Phosphatase inhibitor cocktail 2 (Sigma, St. Louis, Mo.) at 4° C. for 10 minutes with shaking.
Cellular levels of phospho-Serine 318 ATG13 (pATG13) were measured via an ELISA method. Total ATG13 Antibody (Cell Signaling Cat #13273) was used to coat the wells. The plate was incubated at 4° C. overnight and washed with ELISA wash buffer (Biolegend Cat #421601). The wells were then blocked with assay diluent (Biolegend Cat #421203) for 1 hour at room temperature. Plate wells were washed with ELISA wash buffer. Cell lysate was added to wells and incubated at room temperature for 2 hours. Plate wells were washed with ELISA wash buffer. Biotinylated pS318-ATG13 antibody (Rockland Immunochemicals Cat #600-401-C49) was diluted in assay diluent and added to each well and incubated at room temperature for 1 hour. Plate wells were washed with ELISA wash buffer. Streptavidin linked to horseradish peroxidase (Thermo Fisher Cat #21140) was diluted in assay diluent and added to each well and incubated at room temperature for 1 hour. Plate wells were washed with ELISA wash buffer. High sensitivity TMB substrate (Biolegend Cat #421101) was added to each well and incubated at room temperature for 20 minutes. The reaction was stopped with 2N Sulfuric Acid. The plate was analyzed at on a plate reader measuring absorbance at 450 nm and 540 nm (background). Signal was calculated by first subtracting the background absorbance at 540 nm from the absorbance at 450 nm for each well. Next, the background corrected absorbance at 450 nm from blank wells was subtracted from test wells. Data was compared to control wells to determine % ATG13 phosphorylation. GraphPad Prism was used to calculate IC50 values.

| IC50 | SMILES |
| --- | --- |
| 100 to 300 nM | CC(C)CN1CC(n2cc(Nc3ncc(Br)c(NCCCN4CCCCC4=O)n3)cn2)C1 [Example 17] |
